In ChEMBL document CHEMBL1137164, “Antioxidative activities of novel diphenylalkyl piperazine derivatives with high affinities for the dopamine transporter” (Bioorg Med Chem Lett, 2004):

Species on record: Canis familiaris
Experiment: inhibitory concentration against auto-oxidative lipid peroxidation in canine brain homogenate
`OC(CNc1ccccc1)CN1CCN(CC(c2ccc(F)cc2)c2ccc(F)cc2)CC1` (stereo unspecified) gave an IC50 of 11 µM.
`Oc1ccc(NCC(O)CN2CCN(CCCC(c3ccc(F)cc3)c3ccc(F)cc3)CC2)cc1` (stereo unspecified) showed an IC50 of 0.32 µM.
With `Nc1ccc(NCC(O)CN2CCN(CCCC(c3ccc(F)cc3)c3ccc(F)cc3)CC2)cc1` (stereo unspecified) the IC50 was 2.7 µM.
In the case of `O=[N+]([O-])c1ccc(NCC(O)CN2CCN(CCCC(c3ccc(F)cc3)c3ccc(F)cc3)CC2)cc1` (stereo unspecified), the IC50 is reported as 182 µM.
In the case of `OC(CNc1ccccc1)CN1CCN(CCCCC(c2ccc(F)cc2)c2ccc(F)cc2)CC1` (stereo unspecified), the IC50 is reported as 8.3 µM.
In the case of `COc1cc(NCC(O)CN2CCN(CCCC(c3ccc(F)cc3)c3ccc(F)cc3)CC2)cc(OC)c1OC` (stereo unspecified), the IC50 is reported as 1.4 µM.
`OC(CNc1ccccc1)CN1CCN(CCC(c2ccc(F)cc2)c2ccc(F)cc2)CC1` (stereo unspecified) was tested, and the IC50 was 11 µM.
For `OC(CNc1ccccc1)CN1CCN(CCCC(c2ccc(F)cc2)c2ccc(F)cc2)CC1` (stereo unspecified), the IC50 was 6.5 µM.
`Cc1c(C)c2c(c(C)c1O)CC[C@@](C)(CCC[C@H](C)CCC[C@H](C)CCCC(C)C)O2` [ALPHA-TOCOPHEROL] was tested, and the IC50 was 1.5 µM.
With `OC(CNc1ccccc1)CN1CCN(C(c2ccc(F)cc2)c2ccc(F)cc2)CC1` (stereo unspecified) the IC50 was 6.9 µM.
Work on `CC(C)(C)c1cc(NCC(O)CN2CCN(CCCC(c3ccc(F)cc3)c3ccc(F)cc3)CC2)cc(C(C)(C)C)c1O` (stereo unspecified) yielded an IC50 of 2.8 µM.
With `COc1ccc(NCC(O)CN2CCN(CCCC(c3ccc(F)cc3)c3ccc(F)cc3)CC2)cc1` (stereo unspecified) the IC50 was 1.6 µM.
For `Cc1ccc(NCC(O)CN2CCN(CCCC(c3ccc(F)cc3)c3ccc(F)cc3)CC2)cc1` (stereo unspecified), the IC50 was 6.1 µM.
Molecule `OC(CNc1ccc(Cl)c(Cl)c1)CN1CCN(CCCC(c2ccc(F)cc2)c2ccc(F)cc2)CC1` (stereo unspecified) has an IC50 of 23 µM.
`CN(C)c1ccc(NCC(O)CN2CCN(CCCC(c3ccc(F)cc3)c3ccc(F)cc3)CC2)cc1` (stereo unspecified) was tested, and the IC50 was 2.2 µM.
`OC(CNc1ccc(Cl)cc1)CN1CCN(CCCC(c2ccc(F)cc2)c2ccc(F)cc2)CC1` (stereo unspecified) showed an IC50 of 8.5 µM.
